Experimental findings from US20250115620A1, “BRIDGED TRICYCLIC CARBAMOYLPYRIDONE COMPOUNDS AND USES THEREOF” (Gilead Sciences, Inc., priority 2022, published 2025) are described below.

SMILES strings stand for the structures. Where two headings read alike, the source gives them in different places.

For data set [1], the system named is pLAI reporter virus. The experiment in a line: microbe, parasite or virus in culture. Type of data set: cell-based, HIV. As to conditions: Human immunodeficiency virus 1, MT4, 72 h.
Data set [2] concerns HIV-1 (IIIB). Put plainly: microbe, parasite or virus in culture. Type of data set: cell-based. As to conditions: Human immunodeficiency virus 1, IIIB, MT4, 120 h, read-out: MT4 EC50.
Experimental: Compounds were tested in a high-throughput 384-well assay format for their ability to inhibit the replication of HIV-1 (IIIB) in MT-4 cells. Compounds were serially diluted (1:3) in DMSO on 384-well polypropylene plates and further diluted 200-fold into complete RPMI media (10% FBS, 1% P/S) using the Biotek Micro Flow and Labcyte ECHO acoustic dispenser. Each plate contained up to 8 test compounds, with negative (No Drug Control) and 5 μM AZT positive controls. MT-4 cells were pre-infected with 10 μL of either RPMI (mock-infected) or a fresh 1:250 dilution of HIV-1 IIIB concentrated virus stock. Infected and uninfected MT-4 cells were further diluted in complete RPMI media and added to each plate using a Micro Flow dispenser. After 5 days incubation in a humidified and temperature controlled incubator (37° C.), Cell Titer Glo (Promega) was added to the assay plates and chemiluminescence read using an Envision plate-reader.
The nature of data set [3]: in vitro. As to conditions: human; for CC50 at 5 days: uninfected MT-4 cells.
The mark [4] stands for this setting: HIV-1 (IIIB) in MT-4 cells, 5 days incubation, Cell Titer Glo.

Regarding `COC[C@H]1CO[C@]2(CC[C@H](C)N3C[C@H]2n2cc(C(=O)NCc4c(F)cc(F)cc4F)c(=O)c(O)c2C3=O)O1` [Example 167, (2R,3′S,4S,7′R)-12′-hydroxy-4-(methoxymethyl)-3′-methyl-1′,11′-dioxo-N-(2,4,6-trifluorobenzyl)-1′,4′,5′,11′-tetrahydro-3′H,7′H-spiro[[1,3]dioxolane-2,6′-[2,7]methanopyrido[1,2-a][1,4]diazonine]-10′-carboxamide], the EC50 in data set [1] (read-out: RLUC 50% HS EC50) was found to be 8.7 nM; in data set [1] (read-out: RLUC CCM EC50), 0.6 nM; in data set [2] (setting [4]), 1.7 nM. The same compound displayed a CC50 at 5 days in data set [3] of 35800 nM.
Take `C[C@H]1CC[C@]2(CC(S(C)(=O)=O)=NO2)[C@H]2CN1C(=O)c1c(O)c(=O)c(C(=O)NCc3c(F)cc(F)cc3F)cn12` [Example 154, (3′S,5S,7′R)-12′-hydroxy-3′-methyl-3-(methylsulfonyl)-1′,11′-dioxo-N-(2,4,6-trifluorobenzyl)-1′,4′,5′,11′-tetrahydro-3′H,4H,7′H-spiro[isoxazole-5,6′-[2,7]methanopyrido[1,2-a][1,4]diazonine]-10′-carboxamide]: the results for the EC50 in data set [1] (read-out: RLUC 50% HS EC50), in data set [1] (read-out: RLUC CCM EC50) and in data set [2] (setting [4]) were 22.1 nM, 1.2 nM and 4.2 nM, respectively. Further, the CC50 at 5 days in data set [3] amounted to 4140 nM.
Take `COC1=NO[C@@]2(CC[C@H](CF)N3C[C@H]2n2cc(C(=O)NCc4c(F)cc(F)cc4F)c(=O)c(O)c2C3=O)C1` [Example 99, (3′R,5S,7′R)-3′-(fluoromethyl)-12′-hydroxy-3-methoxy-1′,11′-dioxo-N-(2,4,6-trifluorobenzyl)-1′,4′,5′,11′-tetrahydro-3′H,4H,7′H-spiro[isoxazole-5,6′-[2,7]methanopyrido[1,2-a][1,4]diazonine]-10′-carboxamide]: the results for the EC50 in data set [1] (read-out: RLUC 50% HS EC50), in data set [1] (read-out: RLUC CCM EC50) and in data set [2] (setting [4]) were 19.7 nM, 0.2 nM and 1.5 nM, respectively. The same compound displayed a CC50 at 5 days in data set [3] of 36500 nM.
For `C[C@H]1CC[C@@]2(CNC(=O)O2)[C@H]2CN1C(=O)c1c(O)c(=O)c(C(=O)NCc3c(F)cc(F)cc3F)cn12` [Example 59, (3′S,5R,7′R)-12′-hydroxy-3′-methyl-1′,2,11′-trioxo-N-(2,4,6-trifluorobenzyl)-1′,4′,5′,11′-tetrahydro-3′H,7′H-spiro[oxazolidine-5,6′-[2,7]methanopyrido[1,2-a][1,4]diazonine]-10′-carboxamide], the EC50 in data set [2] (setting [4]) is 51.4 nM. The CC50 at 5 days in data set [3] was no less than 50000 nM.
`C[C@H]1CC[C@]2(CC(OCC(F)F)=NO2)[C@H]2CN1C(=O)c1c(O)c(=O)c(C(=O)NCc3ccc(F)cc3F)cn12` [Example 47, (3′S,5S,7′R)—N-(2,4-difluorobenzyl)-3-(2,2-difluoroethoxy)-12′-hydroxy-3′-methyl-1′,11′-dioxo-1′,4′,5′,11′-tetrahydro-3′H,4H,7′H-spiro[isoxazole-5,6′-[2,7]methanopyrido[1,2-a][1,4]diazonine]-10′-carboxamide]: the values for the EC50 in data set [1] (read-out: RLUC 50% HS EC50), in data set [1] (read-out: RLUC CCM EC50) and in data set [2] (setting [4]) were 6.5 nM, 0.5 nM and 1.8 nM, respectively. The compound also displayed a CC50 at 5 days in data set [3] of 27500 nM.
The matching figures for `[2H]C([2H])([2H])OC1=NO[C@@]2(CC[C@H](C)N3C[C@H]2n2cc(C(=O)NCc4ccc(F)cc4F)c(=O)c(O)c2C3=O)C1` [Example 153, (3′S,5S,7′R)—N-(2,4-difluorobenzyl)-12′-hydroxy-3-(methoxy-d3)-3′-methyl-1′,11′-dioxo-1′,4′,5′,11′-tetrahydro-3′H,4H,7′H-spiro[isoxazole-5,6′-[2,7]methanopyrido[1,2-a][1,4]diazonine]-10′-carboxamide]: 16.1 nM, 0.2 nM, 0.9 nM and 17600 nM.
Turning to `C[C@H]1CCC2(N=c3ccccc3=N2)[C@H]2CN1C(=O)c1c(O)c(=O)c(C(=O)NCc3c(F)cc(F)cc3F)cn12` [Example 142, (3′S,7′R)-12′-hydroxy-3′-methyl-1′,11′-dioxo-N-(2,4,6-trifluorobenzyl)-1′,4′,5′,11′-tetrahydro-3′H,7′H-spiro[benzo[d]imidazole-2,6′-[2,7]methanopyrido[1,2-a][1,4]diazonine]-10′-carboxamide], the EC50 was 0.7 nM in data set [1] (read-out: RLUC 50% HS EC50), 0.5 nM in data set [1] (read-out: RLUC CCM EC50) and 3.9 nM in data set [2]. The CC50 at 5 days in data set [3] is no less than 50000 nM.
`C[C@H]1CC[C@]2(CC=NO2)[C@H]2CN1C(=O)c1c(O)c(=O)c(C(=O)NCc3c(F)cc(F)cc3F)cn12` [Example 72, (3′S,5S,7′R)-12′-hydroxy-3′-methyl-1′,11′-dioxo-N-(2,4,6-trifluorobenzyl)-1′,4′,5′,11′-tetrahydro-3′H,4H,7′H-spiro[isoxazole-5,6′-[2,7]methanopyrido[1,2-a][1,4]diazonine]-10′-carboxamide]: the EC50 in data set [1] (read-out: RLUC 50% HS EC50) was determined as 108 nM; in data set [1] (read-out: RLUC CCM EC50), 0.3 nM; in data set [2] (setting [4]), 1.2 nM. The compound further yielded a CC50 at 5 days in data set [3] of 31900 nM.
The like results for `C[C@H]1CC[C@]2(CC(=O)N(Cc3ccccn3)O2)[C@H]2CN1C(=O)c1c(O)c(=O)c(C(=O)NCc3c(F)cc(F)cc3F)cn12` [Example 159, (3′S,5S,7′R)-12′-hydroxy-3′-methyl-1′,3,11′-trioxo-2-(pyridin-2-ylmethyl)-N-(2,4,6-trifluorobenzyl)-1′,4′,5′,11′-tetrahydro-3′H,7′H-spiro[isoxazolidine-5,6′-[2,7]methanopyrido[1,2-a][1,4]diazonine]-10′-carboxamide] were, in that order, 1.1 nM, 0.8 nM, 1.8 nM and no less than 50000 nM.
As for `C[C@H]1CC[C@]2(CNC(=O)C2)[C@H]2CN1C(=O)c1c(O)c(=O)c(C(=O)NCc3c(F)cc(F)cc3F)cn12` [Example 58, (3S,3′S,7′S)-12′-hydroxy-3′-methyl-1′,5,11′-trioxo-N-(2,4,6-trifluorobenzyl)-1′,4′,5′,11′-tetrahydro-3′H,7′H-spiro[pyrrolidine-3,6′-[2,7]methanopyrido[1,2-a][1,4]diazonine]-10′-carboxamide], the EC50 in data set [2] (setting [4]) was found to be 77.4 nM. Besides, the CC50 at 5 days in data set [3] was no less than 50000 nM.
Regarding `COCC1=NO[C@@]2(CC[C@H](C)N3C[C@H]2n2cc(C(=O)NCc4ccc(F)cc4F)c(=O)c(O)c2C3=O)C1` [Example 22, (3′S,5S,7′R)—N-(2,4-difluorobenzyl)-12′-hydroxy-3-(methoxymethyl)-3′-methyl-1′,11′-dioxo-1′,4′,5′,11′-tetrahydro-3′H,4H,7′H-spiro[isoxazole-5,6′-[2,7]methanopyrido[1,2-a][1,4]diazonine]-10′-carboxamide], the EC50 in data set [2] (setting [4]) is 1.3 nM. In data set [3], this compound gave a CC50 at 5 days of 23700 nM.
`CC1=NO[C@@]2(CC[C@H](C)N3C[C@H]2n2cc(C(=O)NCc4ncc(F)c(Cl)c4F)c(=O)c(O)c2C3=O)C1` [Example 150, (3′S,5S,7′R)—N-((4-chloro-3,5-difluoropyridin-2-yl)methyl)-12′-hydroxy-3,3′-dimethyl-1′,11′-dioxo-1′,4′,5′,11′-tetrahydro-3′H,4H,7′H-spiro[isoxazole-5,6′-[2,7]methanopyrido[1,2-a][1,4]diazonine]-10′-carboxamide]: the EC50 in data set [2] was determined as 2.1 nM. The CC50 at 5 days in data set [3] is 27000 nM.
With `CC1=NOC2(CC[C@H](C)N3C[C@H]2n2cc(C(=O)NCc4ccc(F)cc4F)c(=O)c(O)c2C3=O)N1N(C)C` (stereo partly drawn) [Example 95, (3′S,7′R)—N-(2,4-difluorobenzyl)-4-(dimethylamino)-12′-hydroxy-3,3′-dimethyl-1′,11′-dioxo-1′,4′,5′,11′-tetrahydro-3′H,4H,7′H-spiro[[1,2,4]oxadiazole-5,6′-[2,7]methanopyrido[1,2-a][1,4]diazonine]-10′-carboxamide], the EC50 in data set [2] came to 0.6 nM. The CC50 in data set [3] was found to be 24100 nM.
With `C[C@H]1OC[C@]2(CC[C@H](C)N3C[C@H]2n2cc(C(=O)NCc4c(F)cc(F)cc4F)c(=O)c(O)c2C3=O)O1` [Example 132, (2S,3′S,4R,7′R)-12′-hydroxy-2,3′-dimethyl-1′,11′-dioxo-N-(2,4,6-trifluorobenzyl)-1′,4′,5′,11′-tetrahydro-3′H,7′H-spiro[[1,3]dioxolane-4,6′-[2,7]methanopyrido[1,2-a][1,4]diazonine]-10′-carboxamide], the EC50 in data set [2] (setting [4]) was 1.4 nM. For the same compound, in data set [3], the CC50 at 5 days is 30300 nM.
For the compound `CC1=NO[C@@]2(CC[C@H](C)N3C[C@H]2n2cc(-c4nnc(Cc5c(F)cc(F)cc5F)s4)c(=O)c(O)c2C3=O)C1` [Example 152, (3′S,5S,7′R)-12′-hydroxy-3,3′-dimethyl-10′-(5-(2,4,6-trifluorobenzyl)-1,3,4-thiadiazol-2-yl)-4′,5′-dihydro-3′H,4H,7′H-spiro[isoxazole-5,6′-[2,7]methanopyrido[1,2-a][1,4]diazonine]-1′,11′-dione], in data set [2], the EC50 was 4.2 nM. The compound further had a CC50 at 5 days in data set [3] of 14200 nM.
Take `CCn1c(CN2O[C@@]3(CC[C@H](C)N4C[C@H]3n3cc(C(=O)NCc5c(F)cc(F)cc5F)c(=O)c(O)c3C4=O)CC2=O)nc2ccccc21` [Example 164, (3′S,5S,7′R)-2-((1-ethyl-1H-benzo[d]imidazol-2-yl)methyl)-12′-hydroxy-3′-methyl-1′,3,11′-trioxo-N-(2,4,6-trifluorobenzyl)-1′,4′,5′,11′-tetrahydro-3′H,7′H-spiro[isoxazolidine-5,6′-[2,7]methanopyrido[1,2-a][1,4]diazonine]-10′-carboxamide]: the EC50 in data set [2] (setting [4]) came out at 3 nM. For the same compound, the CC50 at 5 days in data set [3] was determined as 45700 nM.
As to `CC1=NO[C@@]2(CC[C@H](C)N3C[C@H]2n2cc(C(=O)NCc4c(F)cc(F)cc4F)c(=O)c(O)c2C3=O)S1` [Example 146, (3′S,5S,7′R)-12′-hydroxy-3,3′-dimethyl-1′,11′-dioxo-N-(2,4,6-trifluorobenzyl)-1′,4′,5′,11′-tetrahydro-3′H,7′H-spiro[[1,4,2]oxathiazole-5,6′-[2,7]methanopyrido[1,2-a][1,4]diazonine]-10′-carboxamide], the EC50 in data set [2] worked out at 1.3 nM. The CC50 in data set [3] turned out to be 16900 nM.
